Results published in article PMC6165277 (2018).

Columns and labels:
[1] = tested on: ATP-binding aptamer incorporated DNA scaffold (DNA, duplex) ACCTGGGGGAGTATTGCGGAGGAAGGT/ACCTTCCTCCGCAATACTCCCCCAGGT; assay: Dox fluorescence quenching titration; details: aqueous solution; Dox 1 µg/mL; maximum quenching at Dox/DNA mass ratio ~1:9.8
[2] = tested on: ATP-binding aptamer incorporated DNA scaffold (DNA, duplex) ACCTGGGGGAGTATTGCGGAGGAAGGT/ACCTTCCTCCGCAATACTCCCCCAGGT; assay: Dox fluorescence recovery (release of intercalated Dox); details: indirect; Dox/DNA mass ratio 1:10; recovery ~20, ~36, ~56% at 4, 8, 20 mM ATP

COc1cccc2c1C(=O)c1c(O)c3c(c(O)c1C2=O)C[C@@](O)(C(=O)CO)C[C@@H]3O[C@H]1C[C@H](N)[C@H](O)[C@H](C)O1
binding [1]: yes

Nc1ncnc2c1ncn2[C@@H]1O[C@H](COP(=O)(O)OP(=O)(O)OP(=O)(O)O)[C@@H](O)[C@H]1O
binding [2]: yes
